We go through 2 compounds from US9540389B2, “Antimicrobial potentiators” (priority 2013, dated 2017).

In brackets after ≈: the same amount, converted by molar mass.

Data set [1] is described as follows: H33342 accumulation assay. The class given is cell-based, Pseudomonas aeruginosa ATCC 27835. The note with it: P. aeruginosa; 25 μM.
The target in another data set is AcrAB-TolC efflux pump (Escherichia coli, UniProt P31224). Briefly: H33342 accumulation assay. The note with it: hyper-efflux strain 287. The class given is cell-based, Escherichia coli 287. Set-up: endogenous in cells; host or cells: E. coli strains 285 and 287 (ciprofloxacin-resistant mutants of AB1157).
A short description of data set [2]: Solubility in phosphate buffers. The class given is physicochemical. As to conditions: phosphate buffer, aqueous buffer, read-out: solubility limit.
Data set [3] has as its system Escherichia coli AB1157 ΔemrB. Briefly: Checkerboard MIC assay (antibacterial agent + MBX2319). Format: cell-based. As to conditions: EmrB-defective mutant; data not shown. An excerpt: (§1) • Strains and Reagents. The following strains were obtained from the Keio collection (Baba, et al.: Construction of Escherichia coli K-12 in-frame, single-gene knockout mutants: the Keio collection. In Mol Syst Biol, vol. 2, pp. 2006 0008, (2006)): JW0451 (ΔacrB::kan), JW5503 (ΔtolC::kan), JW3234 (ΔacrF::kan), JW2661 (ΔemrB::kan), JW0863 (ΔmacB::kan). The deletion mutations in each of these strains were transferred to AB1157 using P1 phage transduction (see Table 1). The construction of the E. coli cell-based reporter strain (SOS-XXX) that was used for high throughput screening is described in detail in the supplementary information. […] Irgasan was a generous gift from Ciba Speciality Chemicals, Inc. (High Point, N.C.). Hoechst 33342 (H33342) was purchased from Molecular Probes (Eugene, Oreg.). […] Luria Broth (Miller) and agar were purchased as prepared dehydrated media from Becton Dickenson (Franklin Lakes, N.J.). The compound libraries used in high-throughput screens were purchased from Chembridge (San Diego, Calif.), ChemDiv (San Diego, Calif.), and TimTec (Newark, Del.). MBX2319 was synthesized by Microbiotix, Inc. • Antibacterial Activity Assays. The minimal inhibitory concentration (MIC) of antibacterial agents and biocides were determined using the microbroth dilution method essentially as described in the CLSI protocol M7-A7 (CLSI: Method for dilution antimicrobial susceptibility testing for bacteria that grow aerobically; Approved standard-document M7-A7. In Clinical and Laboratory Standards Institute document M7-A7, Clinical and Laboratory Standards Institute, Wayne, Pa., (2006)), with the following exceptions. LB media was used instead of MHB. […] The final concentration of DMSO in each assay was 2%. […] MIC assays were performed in triplicate and the geometric mean was calculated. Checkerboard MIC assays using an EPI and an antibacterial agent were performed essentially as described (Pillai, et al.: Antimicrobial Combinations. In Antibiotics in Laboratory Medicine, ed. by V. Lorian, pp. 365-440, Lippincott Williams & Wilkins, Philadelphia, Pa., (2005)), with the same modifications used for the MIC assays described above. • Time-Kill Assays. Killing curve assays were performed essentially as described (Pillai, et al.: Antimicrobial Combinations. In Antibiotics in Laboratory Medicine, ed. by V. Lorian, pp. 365-440, Lippincott Williams & Wilkins, Philadelphia, Pa., (2005)). Exponential bacterial cultures grown in LB were diluted to a cell density of ˜1×10^7 in LB followed by addition of CIP and/or an EPI. Viability was monitored over 2-4 hours by making serial dilutions in saline and spotting 5 μl of each dilution onto the surface of an LB agar plate in triplicate. Colonies were counted after the plates were incubated at 37° C. for 16-18 hr, colony forming units (CFU) per ml were calculated, and the average and standard deviation for the three replicates was determined. For treatments that decreased CFU/ml below the limit of detection for the spot plating method, the 100 μl samples were diluted into 5 ml LB top agar, were poured onto LB agar plates, and incubated for 18 hr at 37° C. To calculate the fraction of the control for each sample, the average CFU/ml values for treated samples were divided by those from the same sample at 0 h (time=0). Each experiment was repeated at least three times, and a representative experiment is shown. • H33342 Accumulation Assay. The rate of accumulation of the fluorescent dye Hoechst 33342 (H33342), which is a substrate of a wide variety of bacterial efflux pumps (van den Berg van Saparoea, et al., Biochemistry, vol. 44, pp. 16931-16938, (2005)), can be used to estimate the activity of the major efflux pumps in E. coli and many other bacterial species. The H33342 accumulation assay was used to evaluate the effect of EPIs on the activity of the AcrAB-TolC efflux pump in several bacterial species essentially as described (Coldham, et al., J Antimicrob Chemother, vol. 65, pp. 1655-1663, (2010)). […]

For data set [4], the system named is Escherichia coli AB1157 ΔmacB. The description is as above. Format: cell-based. The note with it: MacB-defective mutant; data not shown.
Description: as §1

In data set [5] the test system is diverse panel of E. coli strains. Briefly: Cumulative MICs (MIC50, MIC90) for levofloxacin and piperacillin ± 25 μM MBX2319. Format: cell-based, Escherichia coli. The note with it: E. coli strain panel.
Description: as §1, with “Exponential bacterial cultures grown in LB were diluted to a cell density of ˜1×10^7 in LB followed by addition of CIP and/or an EPI.” left out, “determined.” for “determined. For treatments that decreased CFU/ml below the limit of detection for the spot plating method, the 100 μl samples were diluted into 5 ml LB top agar, were poured onto LB agar plates, and incubated for 18 hr at 37° C. To calculate the fraction of the control for each sample, the average CFU/ml values for treated samples were divided by those from the same sample at 0 h (time=0). Each experiment was repeated at least three times, and a representative experiment is shown. • H33342 Accumulation Assay. The rate of accumulation of the fluorescent dye Hoechst 33342 (H33342), which is a substrate of a wide variety of bacterial efflux pumps (van den Berg van Saparoea, et al., Biochemistry, vol. 44, pp. 16931-16938, (2005)), can be used to estimate the activity of the major efflux pumps in E. coli and many other bacterial species. The H33342 accumulation assay was used to evaluate the effect of EPIs on the activity of the AcrAB-TolC efflux pump in several bacterial species essentially as described (Coldham, et al., J Antimicrob Chemother, vol. 65, pp. 1655-1663, (2010)).”

The test system of a further data set is Escherichia coli AB1157. In words: microbe, parasite or virus in culture.

Sequence of AcrAB-TolC efflux pump (P02930 23-493): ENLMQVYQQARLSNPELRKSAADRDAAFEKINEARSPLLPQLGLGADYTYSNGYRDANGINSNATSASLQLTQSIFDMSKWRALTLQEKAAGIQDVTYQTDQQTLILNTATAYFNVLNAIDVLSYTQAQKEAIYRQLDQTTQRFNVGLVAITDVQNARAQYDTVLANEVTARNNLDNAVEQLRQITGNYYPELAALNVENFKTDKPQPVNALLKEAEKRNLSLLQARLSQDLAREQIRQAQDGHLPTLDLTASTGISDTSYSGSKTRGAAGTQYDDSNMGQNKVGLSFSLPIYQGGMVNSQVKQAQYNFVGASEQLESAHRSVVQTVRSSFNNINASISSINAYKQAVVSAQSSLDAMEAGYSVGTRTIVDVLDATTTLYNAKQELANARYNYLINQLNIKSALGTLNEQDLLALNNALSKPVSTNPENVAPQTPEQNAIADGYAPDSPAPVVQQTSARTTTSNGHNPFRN
Sequence of AcrAB-TolC efflux pump (P0AE06 25-397, further chain): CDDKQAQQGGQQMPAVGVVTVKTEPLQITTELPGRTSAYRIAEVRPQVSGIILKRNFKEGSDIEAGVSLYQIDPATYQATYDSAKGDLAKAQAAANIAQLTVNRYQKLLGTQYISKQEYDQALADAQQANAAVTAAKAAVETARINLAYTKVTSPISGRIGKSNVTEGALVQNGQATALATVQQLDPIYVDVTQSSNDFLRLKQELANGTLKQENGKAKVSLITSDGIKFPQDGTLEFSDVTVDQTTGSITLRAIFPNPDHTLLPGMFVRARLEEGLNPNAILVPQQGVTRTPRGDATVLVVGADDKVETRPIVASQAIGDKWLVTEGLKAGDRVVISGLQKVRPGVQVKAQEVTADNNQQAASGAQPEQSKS
Sequence of AcrAB-TolC efflux pump (P31224 whole entry): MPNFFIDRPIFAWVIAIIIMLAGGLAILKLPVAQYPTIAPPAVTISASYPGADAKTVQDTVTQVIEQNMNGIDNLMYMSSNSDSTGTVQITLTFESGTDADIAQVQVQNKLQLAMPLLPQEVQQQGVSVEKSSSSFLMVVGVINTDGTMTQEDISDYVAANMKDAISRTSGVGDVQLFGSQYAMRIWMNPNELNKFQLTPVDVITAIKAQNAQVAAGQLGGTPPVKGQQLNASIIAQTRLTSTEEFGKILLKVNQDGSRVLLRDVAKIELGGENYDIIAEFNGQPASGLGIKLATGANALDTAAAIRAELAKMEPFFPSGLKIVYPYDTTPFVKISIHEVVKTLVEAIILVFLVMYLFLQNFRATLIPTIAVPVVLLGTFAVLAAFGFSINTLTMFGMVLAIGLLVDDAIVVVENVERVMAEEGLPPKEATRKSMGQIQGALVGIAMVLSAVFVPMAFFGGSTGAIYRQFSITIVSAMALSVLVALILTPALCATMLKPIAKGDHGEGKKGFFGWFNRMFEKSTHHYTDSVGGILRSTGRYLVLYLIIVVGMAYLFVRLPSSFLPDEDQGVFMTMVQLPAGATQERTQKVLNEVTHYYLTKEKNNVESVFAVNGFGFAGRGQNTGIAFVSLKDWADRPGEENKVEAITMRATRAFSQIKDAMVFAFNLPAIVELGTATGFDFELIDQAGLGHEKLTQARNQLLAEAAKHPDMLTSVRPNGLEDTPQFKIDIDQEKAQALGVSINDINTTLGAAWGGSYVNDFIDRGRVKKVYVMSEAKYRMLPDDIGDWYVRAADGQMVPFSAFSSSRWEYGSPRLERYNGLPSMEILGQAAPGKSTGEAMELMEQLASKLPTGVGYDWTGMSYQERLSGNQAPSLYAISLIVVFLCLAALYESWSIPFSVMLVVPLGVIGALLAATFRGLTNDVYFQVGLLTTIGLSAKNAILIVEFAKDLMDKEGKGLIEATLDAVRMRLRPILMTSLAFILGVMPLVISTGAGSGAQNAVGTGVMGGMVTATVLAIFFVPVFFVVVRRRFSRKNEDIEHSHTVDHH

Turning to `CC1(C)Cc2c(C#N)c(SCCc3ccccc3)nc(N3CCOCC3)c2CO1` [MBX2319], the H33342 accumulation entry in data set [1] is reported as “weak activity”. On AcrAB-TolC efflux pump, the H33342 accumulation entry is “increased H33342 accumulation”. Besides, the solubility in data set [2] was 15 to 20 µM (≈ 6.14 to 8.19 µg/mL). In addition, in data set [3], the “MIC shifts by MBX2319” value is “MIC shifts similar to WT”. In addition, the “MIC shifts by MBX2319” value in data set [4] is “MIC shifts similar to WT”. Further, in data set [5], the “decrease of MIC50 for LEV” value is recorded as “four fold”, the “decrease of MIC90 for LEV” value is listed as “four fold”, the “effect on MIC50 for PIP” value is recorded as “did not have a significant effect” and the “effect on MIC90 for PIP” value is on record as “did not have a significant effect”.
Regarding `CCN1CCN(C(=O)N[C@@H](C(=O)N[C@@H]2C(=O)N3[C@@H]2SC(C)(C)[C@@H]3C(=O)O)c2ccccc2)C(=O)C1=O` [Piperacillin, piperacillin], the MIC in the data set with Escherichia coli AB1157 was 4 mg/L (≈ 7.73 µM).
